The source made the active and inactive calls. How the calls were made is not given here.
Key:
[1] = viability of HEp-2 cells – cell-based, set 1, cytotoxicity control, dose response (AID 602483); details: HEp-2 cell viability, cytotoxicity; at 50 µM (top of the series)
[2] = system: HEp-2 cell viability, cytotoxicity; experiment: as above

| SMILES | viability [1] | CC50 [2] |
| --- | --- | --- |
| CN1CCN(Cc2nc3ccc([N+](=O)[O-])cc3c(=O)n2-c2ccccc2F)CC1 | 70.1% (inactive) | – |
| CN(C(=O)Cc1cccs1)c1nc2c(s1)CCCC2 | – | 5.67 µM |
| CCN1CCN(Cc2nc3ccc([N+](=O)[O-])cc3c(=O)n2-c2ccccc2F)CC1 | 72.6% (inactive) | – |

From PubChem BioAssay AID602483 (Southern Research Specialized Biocontainment Screening …, 2012)
